Data as given in the NIST ThermoML archive (doi:10.1016/j.jct.2008.10.007).

Key:
[1] = xn = mol fraction of the nth substance listed; conditions: 298.15 K, 101 kPa, Liquid, Vibrating tube method
[2] = excess molar enthalpy (molar enthalpy of mixing); xn = mol fraction of the nth substance listed; conditions: 298.15 K, 101 kPa, Liquid, Calvet calorimetry

ClCCCCCCl [1,5-dichloropentane] + CCCOC(C)=O
Conditions	excess molar enthalpy [kcal/mol]	mass density [kg/m3]
[1], x2 = 0.0592	–	1083.72
[1], x2 = 0.126	–	1070.79
[1], x2 = 0.1854	–	1059.08
[1], x2 = 0.2502	–	1046.15
[1], x2 = 0.3122	–	1033.6
[1], x2 = 0.3736	–	1021.02
[1], x2 = 0.495	–	995.63
[1], x2 = 0.5537	–	983.11
[1], x2 = 0.6672	–	958.42
[1], x2 = 0.7269	–	945.17
[1], x2 = 0.7802	–	933.16
[1], x2 = 0.8365	–	920.34
[1], x2 = 0.889	–	908.23
[1], x2 = 0.9471	–	894.67
[2], x2 = 0.0656	-0.00382	–
[2], x2 = 0.1426	-0.00478	–
[2], x2 = 0.2338	-0.0134	–
[2], x2 = 0.3247	-0.0239	–
[2], x2 = 0.4088	-0.0337	–
[2], x2 = 0.4844	-0.0392	–
[2], x2 = 0.5426	-0.0409	–
[2], x2 = 0.5428	-0.0411	–
[2], x2 = 0.6183	-0.0409	–
[2], x2 = 0.6974	-0.0366	–
[2], x2 = 0.7844	-0.0282	–
[2], x2 = 0.8682	-0.0184	–
[2], x2 = 0.9448	-0.00813	–

ClCCCCCCl [1,5-dichloropentane] + CCCOC=O
Conditions	excess molar enthalpy [kcal/mol]	mass density [kg/m3]
[1], x2 = 0.1431	–	1073.06
[1], x2 = 0.215	–	1061.43
[1], x2 = 0.2831	–	1050.01
[1], x2 = 0.3476	–	1038.81
[1], x2 = 0.4101	–	1027.62
[1], x2 = 0.4756	–	1015.48
[1], x2 = 0.5351	–	1004.04
[1], x2 = 0.65	–	980.9
[1], x2 = 0.7551	–	958.34
[1], x2 = 0.8569	–	935.09
[1], x2 = 0.9046	–	923.69
[1], x2 = 0.953	–	911.75
[2], x2 = 0.0772	0.0148	–
[2], x2 = 0.1733	0.0261	–
[2], x2 = 0.2797	0.0335	–
[2], x2 = 0.3611	0.0349	–
[2], x2 = 0.4265	0.0339	–
[2], x2 = 0.48	0.0323	–
[2], x2 = 0.5257	0.0301	–
[2], x2 = 0.5865	0.0263	–
[2], x2 = 0.6476	0.0215	–
[2], x2 = 0.7088	0.0163	–
[2], x2 = 0.7665	0.0115	–
[2], x2 = 0.8266	0.00717	–
[2], x2 = 0.8827	0.00406	–
[2], x2 = 0.9526	0.0012	–

ClCCCCCCCl [1,6-dichlorohexane] + CCCOC(=O)CC
Conditions	excess molar enthalpy [kcal/mol]	mass density [kg/m3]
[1], x2 = 0.0665	–	1052.5
[1], x2 = 0.1321	–	1041.17
[1], x2 = 0.1948	–	1030.19
[1], x2 = 0.2568	–	1019.24
[1], x2 = 0.3171	–	1008.42
[1], x2 = 0.3785	–	997.31
[1], x2 = 0.556	–	964.22
[1], x2 = 0.7294	–	930.71
[1], x2 = 0.7852	–	919.58
[1], x2 = 0.8399	–	908.58
[1], x2 = 0.8955	–	897.26
[1], x2 = 0.949	–	886.33
[2], x2 = 0.0728	-0.00598	–
[2], x2 = 0.1664	-0.0131	–
[2], x2 = 0.2656	-0.0232	–
[2], x2 = 0.3635	-0.0354	–
[2], x2 = 0.4374	-0.0418	–
[2], x2 = 0.4861	-0.0459	–
[2], x2 = 0.5174	-0.0483	–
[2], x2 = 0.5675	-0.0495	–
[2], x2 = 0.6298	-0.0483	–
[2], x2 = 0.7081	-0.043	–
[2], x2 = 0.7895	-0.0373	–
[2], x2 = 0.8738	-0.0237	–
[2], x2 = 0.9478	-0.011	–
